Where a name gives a salt, the structure may show the parent alone.
Assays:
[1] = target: T1, human JAK1 (a.a. 837-1142) (Homo sapiens, UniProt P23458); assay: In vitro JAK kinase assay (HTRF, phosphorylation of a biotinylated peptide), JAK1; format: biochemical
T1 construct: human JAK1 (a.a. 837-1142); His tag (N); made in house; host or cells: insect cells (baculovirus)
In short: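 His-tagged catalytic domains (JAK1 a.a. 837-1142, JAK2 a.a. 828-1132) from insect cells phosphorylate 500 nM biotinylated peptide in 50 mM Tris pH 7.8, 100 mM NaCl, 5 mM DTT; ATP at Km (90 μM JAK1, 30 μM JAK2) or 1 mM, as indicated. 1 h at RT; EDTA stop, HTRF readout; IC50s.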

[2] = target: T2, Jak2 (a.a. 828-1132) (Homo sapiens, UniProt O60674); assay: In vitro JAK kinase assay (HTRF, phosphorylation of a biotinylated peptide), JAK2, reported as JAK2/JAK1 ratio; format: biochemical
T2 construct: Jak2 (a.a. 828-1132); His tag (N); made in house; host or cells: insect cells (baculovirus)

[3] = Assay Conditions Km (ATP 90 μM for Jak1)
[4] = Assay Conditions Km (ATP 90 μM for Jak1, 30 μM for Jak2)

T1 sequence (P23458 849-1154): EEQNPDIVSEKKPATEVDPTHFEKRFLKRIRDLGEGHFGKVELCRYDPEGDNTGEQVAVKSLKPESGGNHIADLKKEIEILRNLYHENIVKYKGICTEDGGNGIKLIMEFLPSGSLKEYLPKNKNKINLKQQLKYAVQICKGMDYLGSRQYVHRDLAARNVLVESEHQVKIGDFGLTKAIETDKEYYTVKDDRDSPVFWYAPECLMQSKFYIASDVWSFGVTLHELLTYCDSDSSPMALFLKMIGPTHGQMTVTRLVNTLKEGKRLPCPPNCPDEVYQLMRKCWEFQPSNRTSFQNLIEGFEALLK
T2 sequence (O60674 828-1132): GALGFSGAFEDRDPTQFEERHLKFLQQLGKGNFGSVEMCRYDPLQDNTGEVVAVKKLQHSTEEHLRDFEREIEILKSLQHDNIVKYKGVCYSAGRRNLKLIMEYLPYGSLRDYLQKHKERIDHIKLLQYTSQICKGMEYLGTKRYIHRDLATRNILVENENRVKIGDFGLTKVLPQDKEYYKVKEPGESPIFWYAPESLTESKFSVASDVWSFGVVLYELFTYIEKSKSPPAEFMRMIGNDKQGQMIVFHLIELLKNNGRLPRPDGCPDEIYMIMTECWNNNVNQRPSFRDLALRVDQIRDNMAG

IC50 ([1]; Assay Conditions 1 mM ATP) | JAK2/JAK1 IC50 ratio ([2]; Assay Conditions 1 mM ATP) | IC50 [1, 3] | JAK2/JAK1 IC50 ratio [2, 4] | Structure (SMILES)
< 50 nM | 24.7 |  |  | N#CCC(C1CCN(c2nc3cccc(O)c3o2)C1)n1cc(-c2ncnc3[nH]ccc23)cn1 (single isomer, unassigned) [Example 161, 3-[1-(7-hydroxy-1,3-benzoxazol-2-yl)pyrrolidin-3-yl]-3-[4-(7H-pyrrolo[2,3-d]pyrimidin-4-yl)-1H-pyrazol-1-yl]propanenitrile]
< 50 nM | 10.9 |  |  | N#CCC(C1CCN(c2nc3cccc(OC(F)F)c3o2)C1)n1cc(-c2ncnc3[nH]ccc23)cn1 (single isomer, unassigned) [Example 164, 3-(4-(7H-pyrrolo[2,3-d]pyrimidin-4-yl)-1H-pyrazol-1-yl)-3-(1-(7-(difluoromethoxy)benzo[d]oxazol-2-yl)pyrrolidin-3-yl)propanenitrile]
< 50 nM | 7.1 |  |  | N#CCC(C1CCN(c2nc3c(O)cccc3o2)C1)n1cc(-c2ncnc3[nH]ccc23)cn1 (single isomer, unassigned) [Example 165, 3-[1-(4-hydroxy-1,3-benzoxazol-2-yl)pyrrolidin-3-yl]-3-[4-(7H-pyrrolo[2,3-d]pyrimidin-4-yl)-1H-pyrazol-1-yl]propanenitrile]
< 50 nM | >8.7 |  |  | N#CCC(C1CCN(c2nc3cccc(CO)c3o2)C1)n1cc(-c2ncnc3[nH]ccc23)cn1 (single isomer, unassigned) [Example 166, 3-{1-[7-(hydroxymethyl)-1,3-benzoxazol-2-yl]pyrrolidin-3-yl}-3-[4-(7H-pyrrolo[2,3-d]pyrimidin-4-yl)-1H-pyrazol-1-yl]propanenitrile]
< 50 nM | >27.3 |  |  | N#CCC(C1CCN(c2ncc3c(c2C#N)SCC3)C1)n1cc(-c2ncnc3[nH]ccc23)cn1 (single isomer, unassigned) [Example 173, 6-(3-{2-cyano-1-[4-(7H-pyrrolo[2,3-d]pyrimidin-4-yl)-1H-pyrazol-1-yl]ethyl}pyrrolidin-1-yl)-2,3-dihydrothieno[3,2-c]pyridine-7-carbonitrile]
< 50 nM | 5.9 |  |  | FCC([C@@H]1CCN(c2nc3cccnc3o2)C1)n1cc(-c2ncnc3[nH]ccc23)cn1 (stereo partly drawn) [71 (3R- enantiomer), 2-((3R)-3-{2-fluoro-1-[4-(7H-pyrrolo[2,3-d]pyrimidin-4-yl)-1H-pyrazol-1-yl]ethyl}pyrrolidin-1-yl) [1,3]oxazolo[5,4-b]pyridine phosphoric acid salt]
 |  | < 50 nM | >5 | CN(C)c1ccnc(N2CCC(C(CC#N)n3cc(-c4ncnc5[nH]ccc45)cn3)C2)n1 (stereo not drawn) [Example 6, 3-{1-[4-(dimethylamino)pyrimidin-2-yl]pyrrolidin-3-yl}-3-[4-(7H-pyrrolo[2,3-d]pyrimidin-4-yl)-1H-pyrazol-1-yl]propanenitrile]

More lines, now with the values behind:

Structure (SMILES) | IC50 ([1]; Assay Conditions 1 mM ATP) | JAK2/JAK1 IC50 ratio ([2]; Assay Conditions 1 mM ATP) | IC50 [1, 3] | JAK2/JAK1 IC50 ratio [2, 4]
N#CCC(C1CCN(c2nc3cccc(C#N)c3o2)C1)n1cc(-c2ncnc3[nH]ccc23)cn1 (single isomer, unassigned) [Example 160, 2-(3-{2-cyano-1-[4-(7H-pyrrolo[2,3-d]pyrimidin-4-yl)-1H-pyrazol-1-yl]ethyl}pyrrolidin-1-yl)-1,3-benzoxazole-7-carbonitrile] | < 50 nM | >11.4 |  | 
COc1cccc2nc(N3CCC(C(CC#N)n4cc(-c5ncnc6[nH]ccc56)cn4)C3)oc12 (single isomer, unassigned) [Example 162, 3-[1-(7-methoxy-1,3-benzoxazol-2-yl)pyrrolidin-3-yl]-3-[4-(7H-pyrrolo[2,3-d]pyrimidin-4-yl)-1H-pyrazol-1-yl]propanenitrile] | < 50 nM | 7.7 |  | 
CCOc1cccc2nc(N3CCC(C(CC#N)n4cc(-c5ncnc6[nH]ccc56)cn4)C3)oc12 (single isomer, unassigned) [Example 163, 3-(4-(7H-pyrrolo[2,3-d]pyrimidin-4-yl)-1H-pyrazol-1-yl)-3-(1-(7-ethoxybenzo[d]oxazol-2-yl)pyrrolidin-3-yl)propanenitrile] | < 50 nM | 3.3 |  | 
N#CCC(C1CCN(c2ncc3ccoc3c2C#N)C1)n1cc(-c2ncnc3[nH]ccc23)cn1 (single isomer, unassigned) [Example 169, 6-(3-{2-cyano-1-[4-(7H-pyrrolo[2,3-d]pyrimidin-4-yl)-1H-pyrazol-1-yl]ethyl}pyrrolidin-1-yl)furo[3,2-c]pyridine-7-carbonitrile] | < 50 nM | >13.3 |  | 
N#CCC(C1CCN(c2ncc3c(c2C#N)S(=O)(=O)CC3)C1)n1cc(-c2ncnc3[nH]ccc23)cn1 (single isomer, unassigned) [Example 172, 6-(3-{2-cyano-1-[4-(7H-pyrrolo[2,3-d]pyrimidin-4-yl)-1H-pyrazol-1-yl]ethyl}pyrrolidin-1-yl)-2,3-dihydrothieno[3,2-c]pyridine-7-carbonitrile 1,1-dioxide] | < 50 nM | 20.0 |  | 
N#CCC(C1CCN(c2ncc3c(c2C#N)SCC3)C1)n1ccc(-c2ncnc3[nH]ccc23)c1 (single isomer, unassigned) [Example 174-1, 6-(3-{2-cyano-1-[3-(7H-pyrrolo[2,3-d]pyrimidin-4-yl)-1H-pyrrol-1-yl]ethyl}pyrrolidin-1-yl)-2,3-dihydrothieno[3,2-c]pyridine-7-carbonitrile] | < 50 nM | 28.5 |  | 
N#CCC(C1CCN(c2ncc3c(c2C#N)SCC3)C1)n1ccc(-c2ncnc3[nH]ccc23)c1 (single isomer, unassigned) [Example 174-2, 6-(3-{2-cyano-1-[3-(7H-pyrrolo[2,3-d]pyrimidin-4-yl)-1H-pyrrol-1-yl]ethyl}pyrrolidin-1-yl)-2,3-dihydrothieno[3,2-c]pyridine-7-carbonitrile] | < 50 nM | 11.1 |  | 
N#CCC(C1CCN(c2ncc3ccsc3c2C#N)C1)n1cc(-c2ncnc3[nH]ccc23)cn1 (single isomer, unassigned) [Example 175, 6-(3-{2-cyano-1-[4-(7H-pyrrolo[2,3-d]pyrimidin-4-yl)-1H-pyrazol-1-yl]ethyl}pyrrolidin-1-yl)thieno[3,2-c]pyridine-7-carbonitrile] | < 50 nM | 15.4 |  | 
N#CCC(C1CCN(c2ncc3cc[nH]c3c2C#N)C1)n1cc(-c2ncnc3[nH]ccc23)cn1 (single isomer, unassigned) [Example 177, 6-(3-{2-cyano-1-[4-(7H-pyrrolo[2,3-d]pyrimidin-4-yl)-1H-pyrazol-1-yl]ethyl}pyrrolidin-1-yl)-1H-pyrrolo[3,2-c]pyridine-7-carbonitrile] | < 50 nM | >5.4 |  | 
N#Cc1c(N2CC[C@H](C(CF)n3cc(-c4ncnc5[nH]ccc45)cn3)C2)ncc2c1S(=O)(=O)CC2 (single isomer, unassigned) [Example 178] | < 50 nM | 31.8 |  | 
FCC([C@H]1CCN(c2nc3cccnc3o2)C1)n1cc(-c2ncnc3[nH]ccc23)cn1 (stereo partly drawn) [70 (3S- enantiomer), 2-((3S)-3-{2-fluoro-1-[4-(7H-pyrrolo[2,3-d]pyrimidin-4-yl)-1H-pyrazol-1-yl]ethyl}pyrrolidin-1-yl)[1,3]oxazolo[5,4-b]pyridine phosphoric acid salt] | < 50 nM | 15 |  | 
N#CCC(C1CCN(c2nc(Br)cs2)C1)n1cc(-c2ncnc3[nH]ccc23)cn1 (stereo not drawn) [Example 5, 3-[1-(4-bromo-1,3-thiazol-2-yl)pyrrolidin-3-yl]-3-[4-(7H-pyrrolo[2,3-d]pyrimidin-4-yl)-1H-pyrazol-1-yl]propanenitrile trifluoroacetate] |  |  | < 50 nM | 2.2
CC(C)Nc1ccnc(N2CCC(C(CC#N)n3cc(-c4ncnc5[nH]ccc45)cn3)C2)n1 (stereo not drawn) [Example 7, 3-{1-[4-(isopropylamino)pyrimidin-2-yl]pyrrolidin-3-yl}-3-[4-(7H-pyrrolo[2,3-d]pyrimidin-4-yl)-1H-pyrazol-1-yl]propanenitrile] |  |  | < 50 nM | 4.7
N#CCC(C1CCN(c2ccc3c(n2)[S+]([O-])CC3)C1)n1ccc(-c2ncnc3[nH]ccc23)c1 (stereo not drawn) [Example 35, 3-[1-(1-oxido-2,3-dihydrothieno[2,3-b]pyridin-6-yl)pyrrolidin-3-yl]-3-[3-(7H-pyrrolo[2,3-d]pyrimidin-4-yl)-1H-pyrrol-1-yl]propanenitrile] | < 50 nM | 4.2 |  | 
N#CCC(C1CCN(c2nc3ccccc3nc2O)C1)n1cc(-c2ncnc3[nH]ccc23)cn1 (stereo not drawn) [Example 43, 3-[1-(3-hydroxyquinoxalin-2-yl)pyrrolidin-3-yl]-3-[4-(7H-pyrrolo[2,3-d]pyrimidin-4-yl)-1H-pyrazol-1-yl]propanenitrile trifluoroacetate salt] |  |  | < 50 nM | 2.5
N#CCC(C1CCN(c2ncc3cccc(Cl)c3n2)C1)n1cc(-c2ncnc3[nH]ccc23)cn1 (stereo not drawn) [Example 44, 3-[1-(8-chloroquinazolin-2-yl)pyrrolidin-3-yl]-3-[4-(7H-pyrrolo[2,3-d]pyrimidin-4-yl)-1H-pyrazol-1-yl]propanenitrile trifluoroacetate salt] |  |  | < 50 nM | 3
N#CCC(C1CCN(c2ncc3cccc(F)c3n2)C1)n1cc(-c2ncnc3[nH]ccc23)cn1 (stereo not drawn) [Example 46, 3-[1-(8-fluoroquinazolin-2-yl)pyrrolidin-3-yl]-3-[4-(7H-pyrrolo[2,3-d]pyrimidin-4-yl)-1H-pyrazol-1-yl]propanenitrile] | < 50 nM | 3.7 |  | 

Source: patent US8716303B2, “N-(hetero)aryl-pyrrolidine derivatives of pyrazol-4-yl-pyrrolo[2,3-d]pyrimidines and pyrrol-3-yl-pyrrolo[2,3-d]pyrimidines as janus kinase inhibitors” (Incyte Corporation, priority 2009, dated 2014)
